From patent US8686050B2, “Diglycidic ether derivative therapeutics and methods for their use” (British Columbia Cancer Agency Branch, priority 2008, dated 2014)
“Also recorded” adds a separate entry of the source. Structures can show the parent of a compound that is named as a salt.

Tests used:
[1] = target: T1, Gal4 DBD-AR1-558 (AR NTD) (Homo sapiens, UniProt P10275); experiment: Transactivation of the AR NTD (Gal4 DBD-AR1-558 with 5xGal4UAS-luciferase) in LNCaP cells; type: cell-based; details: LNCaP cells, 185-9-2 5 ug/ml=12 μM, bicalutamide 10 μM
T1 construct: cloning amino acids 1-558 of the human AR NTD into the C-terminus of Gal4 DBD; expressed in transfected cells; host or cells: LNCaP
T1 sequence (P10275 1-558): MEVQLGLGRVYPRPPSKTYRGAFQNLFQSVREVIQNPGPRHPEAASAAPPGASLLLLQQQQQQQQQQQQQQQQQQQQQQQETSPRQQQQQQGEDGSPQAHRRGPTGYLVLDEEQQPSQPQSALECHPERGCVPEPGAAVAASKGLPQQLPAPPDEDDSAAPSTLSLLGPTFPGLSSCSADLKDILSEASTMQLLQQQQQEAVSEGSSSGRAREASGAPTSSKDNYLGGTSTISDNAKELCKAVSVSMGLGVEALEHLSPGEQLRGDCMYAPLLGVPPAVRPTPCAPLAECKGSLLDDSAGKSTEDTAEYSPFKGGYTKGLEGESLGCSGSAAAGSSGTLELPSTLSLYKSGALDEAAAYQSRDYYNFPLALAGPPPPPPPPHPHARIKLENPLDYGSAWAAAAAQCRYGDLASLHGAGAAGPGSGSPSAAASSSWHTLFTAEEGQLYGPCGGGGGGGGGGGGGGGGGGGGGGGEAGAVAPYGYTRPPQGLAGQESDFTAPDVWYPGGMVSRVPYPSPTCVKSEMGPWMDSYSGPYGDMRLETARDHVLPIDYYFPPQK
Description: These fractions were next tested for their ability to inhibit the AR NTD. […] Extracts identified above were screened by such assays as well as some compounds purchased from commercial suppliers.
Expression vectors for these chimeric proteins were cotransfected into LNCaP cells with a reporter gene containing the Gal4-binding site as cis-acting elements (p5×Gal4UAS-TATA-luciferase).

[2] = target: T2, VP16-ARTAD and Gal4-ARLBD (Homo sapiens, UniProt P10275); experiment: N/C interaction, mammalian two-hybrid in CV1 cells; type: cell-based; details: R1881, 24 hr, 185-9-2 10 μg/ml, bicalutamide 10 μM
T2 construct: amino acids 1-565 of the AR NTD fused to VP16 at the N-terminus; the LBD of the AR (amino acids 628-919; Gal4-ARLBD; the C terminus); expressed in transfected cells; host or cells: CV1
T2 sequence (P10275 1-565): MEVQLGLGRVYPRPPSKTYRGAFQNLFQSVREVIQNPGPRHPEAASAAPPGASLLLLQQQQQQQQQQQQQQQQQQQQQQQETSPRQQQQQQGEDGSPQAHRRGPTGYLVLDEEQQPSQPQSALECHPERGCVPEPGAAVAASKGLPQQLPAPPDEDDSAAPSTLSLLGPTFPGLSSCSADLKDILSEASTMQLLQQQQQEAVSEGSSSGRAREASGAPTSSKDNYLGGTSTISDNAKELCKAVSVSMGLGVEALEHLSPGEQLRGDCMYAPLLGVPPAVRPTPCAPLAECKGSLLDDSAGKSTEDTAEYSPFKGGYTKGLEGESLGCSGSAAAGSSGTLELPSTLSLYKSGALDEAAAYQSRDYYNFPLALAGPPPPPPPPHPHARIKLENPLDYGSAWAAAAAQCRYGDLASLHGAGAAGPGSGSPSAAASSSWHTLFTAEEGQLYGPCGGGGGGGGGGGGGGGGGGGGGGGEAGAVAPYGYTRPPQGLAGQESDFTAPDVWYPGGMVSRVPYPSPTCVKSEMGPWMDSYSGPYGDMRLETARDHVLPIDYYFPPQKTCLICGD

VEGF = VEGF staining of harvested LNCaP xenografts; type: in vivo, mice; details: harvested at day 25 from castrated hosts
Description: Angiogenesis in prostate cancer is predominantly dependent upon vascular endothelial growth factor (VEGF). Testosterone is a potent inducer of VEGF in the prostate (Häggström et al 1999 J Urol. 161, 1620-1625) and re-expression of VEGF in androgen independent tumours is consistent with the re-expression of androgen-regulated genes (Gregory et al 1998 Cancer Res. 58, 5718-5724). Expression of VEGF is associated with androgen independence (Mitsiades et al 2001 Expert Opin Investig Drugs. 10, 1099-1115) and aggressive metastatic disease (Harper et al 1998 J Pathol. 186, 169-177; Balbay et al 1999 Clin Cancer Res. 5, 783-789; Melnyk et al 1999 J Urol. 161, 960-963).

PC3 xenografts = experiment: PC3 subcutaneous xenografts in non-castrated mice; type: in vivo, NOD-SCID male mice; details: 20 mg/kg body weight every 5 days, listed as PNG01-185-017-9-2, 20 mg/kg
Experimental: Six to eight-week old male athymic SCID mice were inoculated subcutaneously in the flank region via a 27-gauge needle with a 150 μl suspension of LNCaP or PC3 human prostate cancer cells (1×10^6 cells). The inoculations took place while the animal was under isofluorane anaesthesia. The tumor take rate is approximately 75%. Mice bearing tumors of 100 mm^3 were randomly assigned to treatment groups. Castration was performed as described below. Tumor volume (formula: L×W×H×0.5236) was measured in mice bearing LNCaP subcutaneous tumors that became palpable or visible and at least 40 mm^3. The animals were monitored daily and tumors were measured every 5 days.

## CC(C)(c1ccc(OCC(O)CO)cc1)c1ccc(OCC(O)CCl)cc1 (stereo not drawn) [185-9-2, BADGE.HCL.H2O]
[1]; FSK 50 μM
  FSK-induced transactivation of the AR NTD: to baseline levels; also recorded: blocked
[1]; IL-6 50 ng/ml
  IL-6-induced transactivation of the AR NTD: to baseline levels; also recorded: blocked
[2]
  androgen-stimulated N/C interaction: inhibit androgen-stimulated N/C interaction
VEGF
  VEGF protein in LNCaP xenografts: decreased levels of vascular endothelial growth factor (VEGF) protein
VEGF; listed as PNG01-185-017-9-2
  VEGF protein in LNCaP xenografts: inhibited the expression of VEGF
PC3 xenografts
  PC3 xenograft tumor growth: had a small effect on PC3 tumor growth but did not reduce tumor burden; also recorded: did not reduce tumors but did slightly slow the growth
